Measurements taken from patent US20260055097A9, “NRF2 PROTEIN DEGRADERS” (Ganymede Oncology, Inc., priority 2022, published 2026).
Like-named read-outs stand apart in the source and are kept apart here.

Tests used:
[1] = biological target: T1, Nrf2 (Homo sapiens, UniProt Q16236); assay: Nrf2 degradation in A549 HiBiT-Nrf2 cells, Nano-Glo HiBiT lytic detection (HiBiT readout); format: cell-based; set-up: host or cells: A549 HiBiT-Nrf2 cells (engineered line bought from Promega)
T1 sequence (Q16236 1-605): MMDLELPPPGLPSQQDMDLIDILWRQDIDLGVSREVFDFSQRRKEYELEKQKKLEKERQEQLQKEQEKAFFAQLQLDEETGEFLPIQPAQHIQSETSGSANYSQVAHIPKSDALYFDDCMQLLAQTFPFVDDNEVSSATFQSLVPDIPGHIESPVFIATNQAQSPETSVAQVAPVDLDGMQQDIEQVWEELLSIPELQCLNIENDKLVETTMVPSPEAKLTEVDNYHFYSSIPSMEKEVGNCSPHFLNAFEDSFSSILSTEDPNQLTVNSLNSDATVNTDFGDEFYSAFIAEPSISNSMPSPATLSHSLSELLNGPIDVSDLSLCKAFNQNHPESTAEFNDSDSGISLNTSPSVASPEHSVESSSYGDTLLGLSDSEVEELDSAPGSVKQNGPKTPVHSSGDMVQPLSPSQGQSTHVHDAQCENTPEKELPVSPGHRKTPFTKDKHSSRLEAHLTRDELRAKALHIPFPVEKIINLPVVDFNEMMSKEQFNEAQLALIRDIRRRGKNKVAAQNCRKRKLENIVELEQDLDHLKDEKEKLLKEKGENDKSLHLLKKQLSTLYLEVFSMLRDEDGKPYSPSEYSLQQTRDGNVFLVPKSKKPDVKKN
Summary of the method: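 A549 HiBiT-Nrf2 cells seeded at 5,000 cells/well in Ham's F-12 with 10% FBS, then treated next day for 6 h and 20 h at 37 °C, 5% CO2. Nrf2 degradation read by Nano-Glo HiBiT lytic luminescence after 30 min at room temperature; staurosporine served as control.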

[2] = system: LK-2; assay: Cancer cell viability, LK-2 (CellTiter-Glo); format: cell-based; conditions: Homo sapiens, LK-2, 72 h, LK-2 cells, 3 days, read-out: Cellular IC50 (μM) LK-2
Summary of the method: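 A549 and LK-2 cells were seeded overnight at 20 K/mL and 35 K/mL respectively. They were then exposed for 3 days to nine three-fold dilutions, typically from 30 µM final. Viability was read as CellTiter-Glo luminescence after a 15 min lysis.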

[3] = 6 h, read-out: DC50 (nM) at 6 h
[4] = 20 h, read-out: DC50 (nM) at 20 h

Compound	DC50 [1, 3] [nM]	DC50 [1, 4] [nM]	IC50 [2] [µM]
Cc1sc(NC(=O)Cc2ccc(F)c(OCCOCCNc3ccc4c(c3)CN(C3CCC(=O)NC3=O)C4=O)c2)nc1-c1ccc2c(c1)CCN2C(=O)c1cncn1C (stereo not drawn) [Cpd. No. 30, 2-(3-(2-(2-((2-(2,6-dioxopiperidin-3-yl)-1-oxoisoindolin-5-yl)amino)ethoxy)ethoxy)-4-fluorophenyl)-N-(5-methyl-4-(1-(1-methyl-1H-imidazole-5-carbonyl)indolin-5-yl)thiazol-2-yl)acetamide]	< 300	> 3000	0.003
Cc1sc(NC(=O)Cc2cccc(OCCOCCNc3cccc4c3C(=O)N(C3CCC(=O)NC3=O)C4=O)c2)nc1-c1ccc2c(c1)CCN2C(=O)C1CC1 (stereo not drawn) [Cpd. No. 34, N-(4-(1-(cyclopropanecarbonyl)indolin-5-yl)-5-methylthiazol-2-yl)-2-(3-(2-(2-((2-(2,6-dioxopiperidin-3-yl)-1,3-dioxoisoindolin-4-yl)amino)ethoxy)ethoxy)phenyl) acetamide]	< 300	< 300	0.02
